Source: patent US20090209606A1 (priority 2004, published 2009)
Like-named read-outs stand apart in the source and are kept apart here. Residues, ends and D or L forms follow the SMILES beside them. *: point of attachment. Cbz = O=C(OCc1ccccc1)*; CH2F = FC*

Assays:
SU-DHL-1 cells [1] = type: cell-based
[2] = tested on: alkylguanyl transferase (AGT) in SU-DHL-1 cells
SU-DHL-1 cells [3] = type: cell-based; remark: listed apart in the source
[4] = tested on: Ape-1 base excision repair enzyme; type: cell-based
gamma-H2AX histone = assay: H2AX foci formation (immunofluorescence); settings: 50 μM
Method: Cell were grown on Lab-Tek chamber slides (Nalge Nunc Intl., Naperville, Ill.) in RPMI 1640 media supplemented with 10% FBS. […] The cells were incubated for 30 minutes at 37° C. and then washed two times with PBS. They were incubated for an additional 4 hours at 37° C. The cells were then washed twice with 1×PBS and incubated 10 minutes in −20° C. 100% methanol to fix the cells. They were then washed three times for five minutes each with 1×PBS. They were incubated at room temperature for 1 hour in blocking buffer (10% FBS in 1×PBS, 1% BSA). The slides were incubated at 4° C. with rocking overnight with the primary polyclonal anti-H2AX antibody (R & D Systems, Minneapolis, Minn.). The antibody was diluted in blocking buffer at a ratio of 1:10,000. Slides were washed three times with 1×PBS and incubated with Alexa Flour 488 goat anti-rabbit secondary antibody (1:4000) (Molecular Probes, Eugene, Oreg.) for 45 minutes at room temperature with gentle shaking. Slides were washed three times with 1×PBS and then the chambers removed and SlowFade Light Antifade with DAPI (Molecular Probes) was added to the cells and coverslips sealed on the slides. Analysis was performed using a motorized Zeiss AxioPlan 2e imaging microscope with DIC optics and fluorescence, a Zeiss AxioCam HRm camera and Zeiss Axiovision software Version 4.2.

[5] = tested on: MCF-7/ADR cells and p53 deficient RK0-E6 colon adenocarcinoma cells; type: cell-based
[6] = tested on: relapsed indolent or transformed rituximab-refractory B-cell NHL; assay: Phase II multicenter trial; type: in vivo, human
Text: This study evaluated the efficacy and toxicity of bendamustine in patients with NHL who have relapsed or are refractory to previous chemotherapy regimens. Patients refractory to rituximab had disease progression within 6 months of treatment.
Methods: This Phase II multicenter trial enrolled patients with relapsed indolent or transformed rituximab-refractory B-cell NHL from 17 sites in the US and Canada. […] Median age of patients was 63 years (range: 38-84) and 88% had Stage III/IV disease. Patients received bendamustine 120 mg/m^2 IV over 30-60 minutes, days 1 and 2, every 21 days for up to 6 cycles. Response was measured using the International Working Group criteria.

SU-DHL-1 cells [7] = assay: cells; type: cell-based; settings: Homo sapiens
PARP in SU-DHL-1 cells = type: cell-based
SU-DHL-1 cells [8] = assay: Cell cycle analysis (propidium iodide, FACS); settings: SU-DHL-1, eight hours, equitoxic concentrations (bendamustine 50 μM)
SU-DHL-1 cells [9] = type: cell-based; remark: listed apart in the source
[10] = tested on: 60 human tumor cell lines
[11] = SU-DHL-1, 72 h, read-out: Ave IC50
[12] = SU-DHL-1, 72 h, read-out: Ave IC90

Cl.Cn1c(CCCC(=O)O)nc2cc(N(CCCl)CCCl)ccc21 [Bendamustine, 4-{5-[bis(2-chloroethyl)amino]-1-methyl-2-benzimidazolyl} butyric acid hydrochloride]
loss of viability after brief exposure and wash-out (SU-DHL-1 cells [1]): extensive loss of viability
effect of O6-benzylguanine on cytotoxic potency [2]: not enhanced
Fen1 mRNA regulation (SU-DHL-1 cells [3]): upregulated
PLK-1 and Aurora A kinase (AurkA) expression (SU-DHL-1 cells [3]): down-regulated
down-regulation of mRNA expression of PLK-1, Aurora Kinases A and B, cyclin B1 (SU-DHL-1 cells [3]): 60 to 80%
induction of p21 and NOXA mRNA (SU-DHL-1 cells [3]): induced
up-regulation of Exo1 expression (SU-DHL-1 cells [3]): 2.5 fold
change of IC50 with methoxyamine addition [4]: reduced approximately four-fold
time to detectable intranuclear H2AX foci (gamma-H2AX histone): ≤ 30 min
micronucleation (nuclear morphology, DAPI) ([5]; 50 μM, alone or with 20 μM zVAD-fmk, two or three days): increased incidence of micronucleation
objective response ([6]; 15 patients refractory to prior alkylator treatment): 67%
complete response ([6]; ITT population): 25%
disease progression ([6]; ITT population): 14%
partial response ([6]; ITT population): 49%
stable disease ([6]; ITT population): 12%
overall objective response rate (ORR) ([6]; ITT population, 120 mg/m^2 IV days 1 and 2 every 21 days): 74%
median duration of response ([6]; all patients): 6.6 months
median duration of response ([6]; indolent patients): 9.3 months
toxicity ([6]; single agent, heavily pretreated patients): acceptable toxicity
median duration of response ([6]; transformed patients): 2.4 months
IC50 (SU-DHL-1 cells [7]; [11]): 33.2 µM
IC90 (SU-DHL-1 cells [7]; [12]): 56.3 µM
IC50 (SU-DHL-1 cells [7]; SU-DHL-1, read-out: IC50 concentration): 25 µM
PARP cleavage (PARP in SU-DHL-1 cells): Maximal PARP cleavage
S-phase distribution increase (SU-DHL-1 cells [8]): over 40%
PARP protein expression (SU-DHL-1 cells [9]): dramatic reduction
expression of total p53 (SU-DHL-1 cells [9]): strong increase
protein expression of Bax (SU-DHL-1 cells [9]): increase
up-regulation of Ser-15-phosphorylated p53 (SU-DHL-1 cells [9]): 8 fold

COC(=O)C[C@H](NC(=O)[C@H](C)NC(=O)[C@@H](NC(=O)OCc1ccccc1)C(C)C)C(=O)CF [zVAD-fmk] (Cbz-Val-Ala-Asp(OMe)-CH2F)
bendamustine-induced increases in Annexin-V-positive cells [5]: able to inhibit

N[C@@H](Cc1ccc(N(CCCl)CCCl)cc1)C(=O)O [melphalan]
loss of viability after brief exposure and wash-out (SU-DHL-1 cells [1]): minimal loss of viability
PARP cleavage (PARP in SU-DHL-1 cells): No PARP cleavage

CN(C)/N=N/c1[nH]cnc1C(N)=O [DTIC, Dacarbazine, Dacarbazine]
Correlation (PCC) with bendamustine, LC50 [10]: 0.792 (LC50)

O=NN(CCCl)C(=O)NCCCl [carmustine]
effect of O6-benzylguanine on cytotoxic potency [2]: significantly sensitizes

O=C(O)CCCc1ccc(N(CCCl)CCCl)cc1 [Chlorambucil, chlorambucil]
loss of viability after brief exposure and wash-out (SU-DHL-1 cells [1]): minimal loss of viability
PLK-1 and Aurora A kinase (AurkA) expression (SU-DHL-1 cells [3]): No changes
down-regulation of mRNA expression of PLK-1, Aurora Kinases A and B, cyclin B1 (SU-DHL-1 cells [3]): minor effect
induction of p21 and NOXA mRNA (SU-DHL-1 cells [3]): much lower extent
up-regulation of Exo1 expression (SU-DHL-1 cells [3]): 1.8 fold
IC50 (SU-DHL-1 cells [7]; [11]): 3.4 µM
IC90 (SU-DHL-1 cells [7]; [12]): 6.2 µM
IC90 (SU-DHL-1 cells [7]; SU-DHL-1, read-out: IC90 concentration): 5 µM
IC50 (SU-DHL-1 cells [7]; SU-DHL-1, read-out: equitoxic (IC50) concentrations): 4 µM
PARP cleavage (PARP in SU-DHL-1 cells): No PARP cleavage
S-phase distribution increase (SU-DHL-1 cells [8]): approximately 20%
PARP protein expression (SU-DHL-1 cells [9]): no changes
expression of total p53 (SU-DHL-1 cells [9]): small increase
up-regulation of Ser-15-phosphorylated p53 (SU-DHL-1 cells [9]): no changes

O=P1(N(CCCl)CCCl)NCCCO1 (centres unmarked) [cyclophosphamide]
effect of O6-benzylguanine on cytotoxic potency [2]: Opposite results
S-phase distribution increase (SU-DHL-1 cells [8]): ~15%
